20 compounds from ChEMBL document CHEMBL1126832, “2-Amido-8-methoxytetralins: a series of nonindolic melatonin-like agents” (J Med Chem, 1993) can be followed below.

The structures appear in SMILES notation. Bounds are passed on as bounds.

One assay has as its target Melatonin receptor (Gallus gallus, UniProt P49288+P51050+P49285). Kind of assay: Binding affinity to compete for 2-[125I]iodomelatonin binding to chicken retinal membranes. Further details: species or system Retina, Membrane; call rule not given here.
Assay [1] concerns the target Melatonin receptor (Gallus gallus) (UniProt P49288+P51050+P49285). Description: Relative binding affinity to chicken retinal membranes compared to 2-[125I]iodomelatonin. To be noted: Retina; Membrane.
Another assay is filed under the species Oryctolagus cuniculus. Description: Tested for in vitro inhibition of calcium-dependent release of [3H]dopamine from rabbit retina; NE- No effect. The format is functional.
The target in assay [2] is Melatonin receptor (Oryctolagus cuniculus). Description: Inhibition of […] calcium dependent dopamine release from the rabbit retina.

The Ki is the equilibrium dissociation constant of an inhibitor or competing ligand from its target. Low readings indicate a stronger hold on the target, high ones a looser hold on the target. For `CCC(=O)NCCc1ccccc1OC`, the Ki at Melatonin receptor was determined as 789 nM. Moreover, in assay [1], the Relative affinity was 1380.
By IC50 is commonly meant the concentration that gives 50% inhibition. Take `COc1cccc2c1CC(NC(=O)Cc1ccccc1)CC2` (stereo unspecified): the IC50 result in the assay listed under Oryctolagus cuniculus is listed as “Not Active”.
The compound `CC(=O)NC1CCc2ccccc2C1` (stereo unspecified) returned a Ki on Melatonin receptor of 665 nM. This compound showed a Relative affinity in assay [1] of 1170. The IC50 in assay [2] was 52 nM.
As to `COc1cc2c(CCNC(C)=O)c(C)[nH]c2c(Cl)c1Cl`, the Ki at Melatonin receptor is 0.23 nM. The compound further displayed a Relative affinity in assay [1] of 0.4. Moreover, the IC50 in assay [2] amounted to 0.01 nM.
Taken in the same sequence, the figures for `COc1ccc2c(c1)CC(NC(C)=O)CC2` (stereo unspecified) were 121 nM, 212 and 1.6 nM.
The like results for `COc1cccc2c1CC(NC(=O)C1CC1)CC2` (stereo unspecified) were, in that order, 141 nM, 247 and 2.5 nM.
`CCC(=O)NCCc1c[nH]c2ccc(OC)cc12` registered a Ki at Melatonin receptor of 0.27 nM. In assay [1], this compound came in with a Relative affinity of 0.47.
Turning to `COc1cccc2c1CC(NC(=O)C(C)C)CC2` (stereo unspecified), at Melatonin receptor, the Ki amounted to 312 nM. This compound yielded a Relative affinity in assay [1] of 547. In addition, the IC50 in assay [2] worked out at 7.9 nM.
The like results for `COc1cccc2c1CCC(NC(C)=O)C2` (stereo unspecified) were, in that order, 1950 nM, 3420 and 6.5 nM.
In turn, `CCCC(=O)NC1CCc2ccccc2C1` (stereo unspecified) registered a Ki at Melatonin receptor of 44.4 nM. This compound also gave a Relative affinity in assay [1] of 78. Further, the IC50 in assay [2] was 1 nM.
The like results for `CCC(=O)NC1CCc2ccccc2C1` (stereo unspecified) were, in that order, 145 nM, 254 and 8.1 nM.
The like results for `CCCC(=O)NC1CCc2cccc(OC)c2C1` (stereo unspecified) were, in that order, 3.6 nM, 6.3 and 1.2 nM.
Turning to `CCCC(=O)NCCc1c[nH]c2ccc(OC)cc12`, at Melatonin receptor, the Ki is on record as 0.73 nM. In addition, in assay [1], the Relative affinity was found to be 1.28.
`CCCC(=O)NCCc1ccccc1OC`: the Ki at Melatonin receptor amounted to 748 nM. This compound also had a Relative affinity in assay [1] of 1310.
The like results for `COc1cccc(CCNC(C)=O)c1` were, in that order, 581 nM and 1020.
`COc1cccc2c1CC(NC(=O)CCl)CC2` (stereo unspecified): on Melatonin receptor, the Ki is 3.75 nM. For the same compound, in assay [1], the Relative affinity worked out at 6.6. Further, the IC50 in assay [2] turned out to be 0.063 nM.
The like results for `COc1ccccc1CCNC(C)=O` were, in that order, 420 nM, 737 and 3 nM.
Taken in the same sequence, the figures for `COc1cccc2c1CC(NC(=O)c1ccccc1)CC2` (stereo unspecified) were 23100 nM, 40500 and 22 nM.
`COc1ccc2c(c1)CCC(N)C2.Cl` (stereo unspecified): the inhibitory constant (Ki) on Melatonin receptor is listed as more than 100000 nM.
`O=C(CCl)NC1CCc2ccccc2C1` (stereo unspecified) had an inhibition constant Ki at Melatonin receptor of 95.1 nM. The compound also had a Relative affinity in assay [1] of 167. Further, in assay [2], the IC50 worked out at 1.3 nM.
